Data reported in patent US6197944A, “DNA molecules stabilized by modifications of the 3'-terminal phosphodiester linkage” (Integrated DNA Technologies, Inc., priority 1994, dated 2001).

What was measured:
[1] = tested on: mouse globin mRNA (MA-15: mouse α-globin mRNA; CODMB-25: mouse β-globin mRNA); test: In vitro translation of globin mRNA in rabbit reticulocyte lysate (hybrid-arrested translation, role of RNaseH); type: biochemical; details: for inhibition of translation of the targeted mRNA: in words; for % Inhibition Of Globin Synthesis, +poly rA/oligo dT: with poly rA/oligo dT 500 ug/ml (RNaseH inhibitor); for % Inhibition Of Globin Synthesis, +poly rA/oligo dT / % Inhibition Of Globin Synthesis, -poly rA/oligo dT: CODMB-25 4 uM, 1 hour at 30° C.; for % Inhibition Of Globin Synthesis, -poly rA/oligo dT: without poly rA/oligo dT
Protocol: (§1) For the purpose of these experiments two oligonucleotides were synthesized: 5'-GAGCACCATGGTTTC, MA-15; and 5'-[…],(SEQ ID NO:2) CODMB-25. Both were prepared on a Beckman automated DNA synthesizer using the phophoramidite method. MA-15 is complementary to a sequence within mouse α-globin mRNA spanning the initiation codon. CODMB-25 hybridizes to a sequence within the coding region of mouse β-globin mRNA. Mouse globin mRNA was isolated from reticulocytes obtained from mice rendered anemic by treatment with phenylhydrazine as described by Goosens and Kan (Methods in Enzymology (Antonini, E., Rossi-Bernadi, L., and Chiancone, E., eds.) 76, 805-817, 1981). In vitro translation reactions were carried out in the rabbit reticulocyte lysate system. The reticylocyte lysates used were purchased from ProMega Biotec, and contain RNaseH. Translation reactions were programmed with 1 ug of total mouse reticulocyte RNA. The reactions were allowed to proceed for 1 hour at 30° C. Each sample contained 45 uCi of [^35 S]methionine (Amersham) in a total volume of 25 ul. Protein synthesis was measured by incorporation of [^35 S]methionine into material precipitatable in 10% trichloracetic acid. In control reactions in the absence of oligonucleotide, synthesis of β globin accounts for 60% of the incorporated counts; α globin synthesis accounts for 40% of the radioactivity incorporated into protein. Reactions were carried out in both the presence and absence of poly rA/oligo dT (500 ug/ml).

β-globin mRNA = test: In vitro translation in rabbit reticulocyte lysate, β-globin synthesis; type: biochemical, mouse; details: in words; MA-15 complementary to 12 of 15 residues of β-globin mRNA
Protocol: as §1, with “Reactions were carried out in both the presence and absence of poly rA/oligo dT (500 ug/ml).” left out

[2] = type: in vitro ADME, human; details: 37° C., 15 minutes to 2 hours, heparinized blood
Protocol: The oligonucleotide MA-15 described in Example 1 was radioactively labeled with ^32 P at the 5'-end of the molecule using γ^32 P-adenosine triphosphate (γ ^32 P-ATP, Amersham) and T4 polynucleotide kinase (Bethesda Research Laboratories):
where the asterisk represents the radiolabel. Separately, a radiolabeled derivative was prepared in which ^32 P was introduced at the 3'most internucleotide link using α^32 P-deoxycytidine triphosphate (dCTP) and DNA polymerase I (Bethesda Research Laboratories):
The reaction catalyzed by DNA polymerase I is between 5'-GAGCACCATGGTTT and dCTP and requires the complementary DNA strand as a template. A 50 fold excess of unlabeled MA-15 was added after the reaction to insure that the labeled derivative is single stranded. These procedures are standard methods for radiolabeling DNA fragments, see for example, Maniatis, T., Fritsch, E. F., and Sambrook, J., Molecular Cloning: A Laboratory Manual, Cold Spring Harbor Laboratory, New York, pp. 114-115 and 122-126, 1982, which is incorporated herein by reference. […]
The modified oligonucleotide was labeled with ^32 P at the 5'-terminal OH group using γ^32 P-ATP and T4 polynucleotide kinase as described in Example 3. […] Aliquots were removed at various times and analyzed by polyacrylamide gel electrophoresis. […]

[3] = Degradation of oligonucleotide in K562 cell extracts; type: in vitro ADME, human
Protocol: The purpose of these studies was to determine the pathways by which oligonucleotides are degraded by nucleases present within human cells. Radiolabeled derivatives of MA-15 were prepared as in Example 3. Degradation of the oligonucleotide was studied in extracts prepared from the human erythroleukemia cell line K562. The K562 cell line was first isolated by Lozzio, C. B., and Lozzio, B. B., Blood (1975) 45, 321-334, and has been studied extensively as a model for red cell differentiation. The cells were suspended in 10 mM tris buffer pH 7.4 with 5 mM MgCl2, 1 mM CaCl2, 100 mM NaCl, and 0.1% Triton® X-100 (polyethylene glycol 4-isooctylphenyl ether, and homogenized with a cold motor driven teflon pestle homogenizer for 30 seconds. Cell membranes and organelles were further disrupted by sonication by five 15 second bursts using a Biosonic sonifier set on full power. Remaining cell debris was removed from the extracts by centrifugation for 5 minutes at 12,000×g.
The radiolabeled oligonucleotide was incubated in K562 cell extracts under the same conditions as decribed in Example 3 and the degradation products analyzed by polyacrylamide gel electrophoresis. […] The half-life for cleavage of the 3'-terminal internucleotide link was 2 minutes. […] The half-life for cleavage of the 5'-terminal nucleotide unit from the chain by this mechanism was 20 minutes.
The derivative of MA-15 described in Example 5 in which the 3'-terminal internucleotide link was modified as a 2,2,2-trichloro-1,1-dimethylethyl phosphotriester was also used in this study. Extracts from K562 cells were prepared as in Example 4. The modified oligonucleotide was incubated in the cell extracts at 37° C. Aliquots were removed at various times, and the products of degradation were analyzed by polyacrylamide gel electrophoresis.

mouse α-globin mRNA = test: Cleavage of globin mRNA by E. coli RNaseH after hybridization with oligonucleotide (Northern blot); type: biochemical; details: 1.1 nanomoles oligonucleotide in 22 microliters, 2 units E. coli RNaseH, 30 minutes at 37° C.
Protocol: Mouse globin mRNA was isolated from mice rendered anemic by treatment with phenylhydrazine as described in Example 1. Three oligonucleotides were compared in this study; MA-15, the derivative of MA-15 utilized in Examples 5 and 6 in which the 3'-terminal internucleotide link is modified as a trichlorodimethylethyl phosphotriester (MA-15-TCDM), and a derivative further modified at the 5'-terminal OH group with naphthylisocyanate (NPH-MA-15-TCDM). Mouse globin mRNA (2 micrograms) was added to 1.1 nanomoles of the oligonucleotide in a final volume of 22 microliters containing 10 mM tris-HCl buffer at pH 7.5, 5 mM MgCl2, 25 mM NaCl, and 1 mM dithiothreitol. The reactions were initiated by the addition of 2 units of E. coli RNaseH, and were allowed to proceed for 30 minutes at 37° C. The reactions were stopped by extraction of the samples with a 1:1 mixture of phenol and chloroform. The mRNA species remaining after digestion with RNaseH were isolated by precipitation with ethanol and analyzed on Northern blots.
The RNA samples were reacted with 1 M glyoxal in a 1:1 (volume/volume) mixture of 10 mM sodium phosphate buffer at pH 6.5 and dimethylsulfoxide for 1 hour at 50° C., and then electrophoresed on a 1.5% agarose gel. The RNAs were transferred from the gel to a Gene Screen Plus filter (DuPont-NEN) by capillary blotting according to the method described by the manufacturer. […]

c-myc mRNA = test: Inhibition of expression of c-myc in MOPC 315 cells (Northern blot); type: cell-based, murine; details: either 1 or 5 micromolar, 4 hours at 37° C.
Protocol: MOPC 315 cells were maintained in RPMI 1640 culture media containing 10% fetal calf serum at 37° C. with 7% CO2. Log phase MOPC 315 cells were harvested by centrifugation (250×g for 19 minutes at 23° C.) and resuspended at a density of 5×10^6 /ml in HB101 serum-free medium (DuPont). One ml aliquots of this cell suspension were incubated in the presence of oligonucleotide for 4 hours at 37° C. and 7% CO2. Additional one ml aliquots were incubated concommitantly without oligonucleotide. Cells from each group were then collected by centrifugation. Total cellular RNA was prepared as described by Chirgwin et al., Biochemistry 18, 5294-5299 (1979), and analyzed by Northern blots as described in Example 7. The filters were probed with an oligonucleotide complementary to c-myc mRNA labeled with ^32 P using polynucleotide kinase and γ^32 P-ATP as in previous examples.

Row | Substance | inhibition of translation of the targeted mRNA [1] | % Inhibition Of Globin Synthesis, +poly rA/oligo dT [1] [%] | % Inhibition Of Globin Synthesis, -poly rA/oligo dT [1] [%] | inhibition of β-globin synthesis (β-globin mRNA) | pathway of degradation in human blood [2] | degradation by 5'- to 3'-exonucleolytic activity in K562 cell extracts ([3]; K562 cell extracts) | primary pathway of degradation in K562 cell extracts ([3]; K562 cell extracts) | rate of degradation compared with that in blood ([3]; K562 cell extracts vs blood) | half-life for cleavage of the 3'-terminal internucleotide link ([3]; K562 cell extracts, 3' to 5' exonucleolytic activity, 37° C.) [min] | half-life for cleavage of the 5'-terminal nucleotide unit from the chain ([3]; K562 cell extracts, 5'- to 3'-exonucleolytic activity, 37° C.) [min] | decrease in intensity of the α-globin mRNA band (RNaseH cleavage) (mouse α-globin mRNA) | effect on c-myc mRNA levels (c-myc mRNA)
1 | 5'-GAGCACCATGGTTTC [MA-15] | very effectively inhibited translation of the targeted mRNA | 3 | 51 | inhibits β-globin synthesis to some extent | sequential exonucleolytic cleavage of the strand from the 3'-toward the 5'-end of the chain | A slower 5'- to 3'-exonucleolytic activity was also observed | 3' to 5' exonucleolytic activity | much faster than that in blood | 2 | 20 | marked decrease in the intensity of the band for α-globin mRNA | –
2 | 5'-T CCCTTCATCCCGAAGTT C (antisense TCCCTTCATCCCGAAGTTC; TCDM group attached, position not given here) [anti-albumin oligonucleotide, oligonucleotide complementary to human albumin mRNA; ( ) again represents the TCDM group] | – | – | – | – | – | – | – | – | – | – | – | no effect
3 | 5'-TGTCCAAGTGATTCAGGCCATCGTT [CODMB-25] | very effectively inhibited translation of the targeted mRNA | 5 | 61 | – | – | – | – | – | – | – | – | –
